Test results reported in patent US9603905B2, “Intranasal insulin administration for the minimization of anesthesia-induced memory loss” (priority 2014, dated 2017).
Like-named read-outs stand apart in the source and are kept apart here.

How the values were obtained:
PP2A = assay: Western blot of PP2A-C level, methylation and Tyr307 phosphorylation in brain; format: in vivo, 3xTg-AD mice; details: intranasal insulin 7 days before propofol
Description: (§1) The 3xTg-AD mice and WT mice (female, 9 months old) used for the present study were habituated to handling for 14 days prior to the experiment. Female mice were used because the female 3xTg-AD mice develop behavioral deficits faster than the male mice. The selection of the age of 9 months was because the 3xTg-AD mice at this age show neurogenic and neuroplastic deficits but no NFTs or amyloid plaques and are cognitively impaired. Intranasal delivery was carried out manually without anesthesia while the mouse head was restrained in a supine position with the neck in extension, as described. A total of 1.75 U/17.5 μl insulin or 0.9% saline (Veh 1) was delivered over both nares alternatively using a 10 μl Eppendorf pipetter. The mouse was held for an additional 5-10 seconds to ensure the fluid was inhaled. […]
(§2) Mouse brain tissue was homogenized in pre-chilled buffer containing 50 mM Tris-HCl (pH 7.4), 50 mM GlcNAc, 20 μM UDP, 2.0 mM EGTA, 2 mM Na3VO4, 50 mM NaF, 20 mM Glycero-phosphate, 0.5 mM AEBSF, 10 μg/ml aprotinin, 10 μg/ml leupeptin, and 4 μg/ml pepstatin A. Protein concentrations of the homogenates were determined by using modified Lowery method. […] Densitometrical quantification of protein bands in Western blots were analyzed by using the TINA software (Raytest IsotopenmeBgerate GmbH, Straubenhardt, Germany).

phosphorylated tau = assay: Immunohistochemical staining of brain sections with 12E8 and PHF-1; format: in vivo, 3xTg-AD mice; details: frontal cortex; 30 min after propofol; 3xTg-ins/prop vs 3xTg-veh1/prop
Description: (§3) The 3xTg-AD mice and WT mice (female, 9 months old) used for the present study were habituated to handling for 14 days prior to the experiment. Female mice were used because the female 3xTg-AD mice develop behavioral deficits faster than the male mice. The selection of the age of 9 months was because the 3xTg-AD mice at this age show neurogenic and neuroplastic deficits but no NFTs or amyloid plaques and are cognitively impaired. Intranasal delivery was carried out manually without anesthesia while the mouse head was restrained in a supine position with the neck in extension, as described. A total of 1.75 U/17.5 μl insulin or 0.9% saline (Veh 1) was delivered over both nares alternatively using a 10 μl Eppendorf pipetter. The mouse was held for an additional 5-10 seconds to ensure the fluid was inhaled. […] All mice were treated with insulin or, as a control, saline daily for 7 consecutive days. […] The brains were removed immediately, and the rostral halves (separated coronally at the bregma level) of the mouse brains were dissected, flash frozen in dry ice, and stored at −80° C. for biochemical analyses at a later date.

tau phosphorylation = assay: Western blot of tau phosphorylation in brain homogenates of 3xTg-AD mice; format: in vivo; details: intranasal insulin 1.75 U daily 7 days before propofol, 30 min following propofol
Description: as §1, §2

brain insulin signaling = assay: Western blot of brain insulin signaling components; format: in vivo, 3xTg-AD mice; details: intranasal insulin 7 days prior to propofol; 3xTg-ins/prop vs 3xTg-veh1/prop
Description: as §1, §2

old wild type mice = assay: Morris water maze (MWM) test after anesthesia
Description: This paradigm of anesthesia is similar to that used clinically for surgical patents in the U.S. The cognitive function of the mice was assessed starting on the next day by using the Morris water maze (MWM) test, a widely used cognitive test for rodents.
Probe testing was carried out on the following day after four-day training and was used to evaluate the retrieval of spatial memory.

[1] = tested on: tau protein kinases (GSK-3β, MAPK/ERK, cdk5, CaMKII, JNK); format: in vivo
Description: as §3
Mouse brain tissue was homogenized in pre-chilled buffer containing 50 mM Tris-HCl (pH 7.4), 50 mM GlcNAc, 20 μM UDP, 2.0 mM EGTA, 2 mM Na3VO4, 50 mM NaF, 20 mM Glycero-phosphate, 0.5 mM AEBSF, 10 μg/ml aprotinin, 10 μg/ml leupeptin, and 4 μg/ml pepstatin A. Protein concentrations of the homogenates were determined by using modified Lowery method. The samples were resolved in 10% or 12.5% SDS-PAGE and electro-transferred onto Immobilon-P membrane (Millipore, Bedford, Mass., USA). The blots were then probed with primary antibody and developed with the corresponding horseradish peroxidase-conjugated secondary antibody and ECL kit (Pierce, Rockford, Ill.). Densitometrical quantification of protein bands in Western blots were analyzed by using the TINA software (Raytest IsotopenmeBgerate GmbH, Straubenhardt, Germany).
Besides PP2A, tau phosphorylation is also regulated by several protein kinases. The levels of several tau protein kinases have been reported to be altered after anesthesia. We therefore determined the levels of the total and the activated form of several tau protein kinases, including glycogen synthase kinase-3β (GSK-3β), mitogen-activated protein kinase/extracellular signal-regulated kinase (MAPK/ERK), cyclin-dependent kinase 5 (cdk5), calcium/calmodulin-dependent protein kinase II (CaMKII), and c-Jun N-terminal kinase (JNK).

[2] = Description: as §3
Hypothermia is known to be a major factor underlying anesthesia-induced tau hyperphosphorylation. Therefore, the rectal temperature of the mice was determined.

[3] = insulin treatment before anesthesia vs anesthesia alone

Compound | net PP2A methylation (PP2A; after normalization with the PP2A-C level) | level and methylation of PP2A in the mouse brain (PP2A; normalized with GAPDH, vs 3xTg-veh1/prop) | number of strongly stained neurons (12E8, PHF-1) (phosphorylated tau) | phosphorylation level of tau at Thr212, Ser262/356 (12E8 sites), Ser396/404 (PHF-1 sites), Ser409 (tau phosphorylation; 3xTg-ins/prop vs 3xTg-veh1/prop) | phosphorylation level of tau at Thr181, Ser199, Thr205, Thr231, Ser422 (tau phosphorylation; insulin-treated vs untreated) | levels of IRβ, IGF-1Rβ, IRβ pY1150/1151, IRS1 pS307, PI3K p85 pY458, PI3K p55 pY199, PDK1, AKT and AKT pT308 (brain insulin signaling) | swimming speeds (old wild type mice; among the four groups (control, anesthesia, insulin+anesthesia, insulin)) | number of platform location crossing during probe test (old wild type mice; [3]) | time to reach the platform location during probe test (old wild type mice; [3]) | spatial learning (old wild type mice; insulin treatment to control mice without anesthesia) | learning performance (time to reach the platform, four training days) (old wild type mice; intranasal insulin 1.75 IU/mouse/day for 7 days before one-time anesthesia) | CDK5, CaMKII pT286 and JNK pT184/pY185 ([1]; intranasal insulin treatment, propofol-treated mouse brains) | body temperature, insulin-treated vs untreated mice ([2]; during propofol anesthesia, intranasal insulin 7 days before) | GSK-3β and ERK ([1]; after anesthesia with propofol) | JNK ([1]; after anesthesia with propofol) | a few other tau kinases ([1]; after anesthesia with propofol) | inhibitory Ser9 phosphorylation of GSK-3β ([1]; after anesthesia with propofol) | average rectal temperature ([2]; two hours after propofol injection (250 mg/kg i.p.)) [°C] | average rectal temperature ([2]; within 30 min after propofol injection (250 mg/kg i.p.), from around 38.2° C.) [°C]
Insulin | not increased | significant increase | markedly reduced | significantly lower | the decreases did not reach statistical significance | up-regulated | not different | increased | decreased | did not affect spatial learning significantly | as good as control mice | mild to moderate reductions | no difference |  |  |  |  |  | 
CC(C)c1cccc(C(C)C)c1O [propofol] |  |  |  |  |  |  |  |  |  |  |  |  |  | inhibition | activation | moderate alterations | dramatic increase | 25.6 | 28.6
